According to patent US9844572B2, “Promotion of neuronal integration in neural stem cell grafts” (Life & Brain GmbH, priority 2009, dated 2017):
“Also recorded” adds a separate entry of the source.

Experiments:
human Neurons [1] = test: Transwell (Boyden chamber) migration assay of human neurons towards chemoattractant-soaked agarose beads; type: cell-based; conditions: agarose beads soaked with 30 ng/ml factor in lower well; 20 hours
Description: FIG. 1B Migration of human Neurons monitored after 20 hours in culture towards either medium or plated neural stem cells derived from human embryonic stem cells (lt-hESNSC) or agarose beads pre-soaked with BDNF, EGF, SDF1, SCF, PDGF, FGF2 or VEGF. Bars represent percentage of migrated neurons (*P<0.03; Statistical significance was determined in relation to medium control).
(§1) One way to study migration at the cellular level is to use microchemotaxis chambers (Boyden chambers; see FIG. 1A) (Richards & McCullough, 1984). A membrane separates the upper and the lower part of the chamber. Cells are plated on the PO/LN coated membrane that separates the upper and the lower well. Chemoattractants are introduced in the well of the lower compartment e.g., by soaking agarose beads (affi-gel blue gel) with the corresponding chemoattractants. 100 μl of the pre-soaked beads are introduced in the lower well and covered with medium before placing the upper well on top. The chemoattractant will be released over time, thus creating a chemoattractive gradient. If the agent acts as a chemoattractant, the attached cells will migrate through the filter towards the gradient of the attracting factor. Small pore sizes (8 μm) require active migration rather than passive falling of the cells through the filter.
In this study agarose beads were soaked with either 30 ng/ml EGF, BDNF, SDF1, SCF, PDFG-AA, FGF2 or VEGF (FIG. 1B). The chemoattractive effect of NSCs on neurons was studied by plating lt-hESNSC directly in the PO/LN coated lower well before placing the upper well with the attached neurons on top. After a culture period of 20 hours, chambers were fixed with 4% PFA for 10 min. Cells that had not migrated and were still on the upper side of the membrane were scraped off, while the migrated cells on the lower side were DAPI stained and counted.

human Neurons [2] = test: Dunn chamber migration assay (chemotaxis of immature neurons); type: cell-based; conditions: factor 200 ng/ml in outer well only; 6 h recording
Description: FIG. 7A Dunn chamber migration assay. Schematic representation of a direct-viewing Dunn chemotaxis chamber showing the position of the inner well, the bridge, the outer well and the overlying coverslip (a) (Zicha et al., 1991 1998, Zhang et al., 2003). Adopted from Hawksley. Calculation of the forward migration index (FMI) during a 6 h recording period. FMI values can be either positive or negative, depending on the direction in which the cell is migrating (b).
FIG. 7B Directionality analysis of cell movement using scatter plots of cell displacement (c-i). The diagrams orientate such that the position of the outer well of the chamber are vertical (y direction). Each point represents the final position of a cell at the end of the recording period of 6-h; the starting point of migration is fixed at the intersection of the two axes. As control migration of human neurons was monitored in medium only (c). For assessing chemokinesis, equal amounts of FGF2 (d) or VEGF (e) were added to both the outer and the inner wells of the chamber. Chemotaxis was tested by placing FGF2 (f) or VEGF (g) in the outer well only. Migration of human neurons treated with BFBF1120 was monitored towards a FGF2 (h) and VEGF (i) gradient.
Chemotaxis of immature neurons was directly viewed and recorded in stable concentration gradients of FGF2 (200 ng/ml) or VEGF (200 ng/ml), respectively, with or without the addition of BIBF1120 ([…]) using a Dunn chemotaxis chamber (Allen et al., 1998 1998, Zhang et al., 2003). This device is made from a Helber bacteria counting chamber by grinding a circular well in the central platform to leave a 1 mm-wide annular bridge between the inner and the outer well. Chemoattractants added to the outer well of the chamber will diffuse across the bridge to the inner well and form a linear steady gradient within ˜30 min after loading the chamber (Zicha et al., 1991; Webb et al., 1996). To study chemotaxis, the outer well of the Dunn chamber can be filled with medium containing a chemoattractant, whereas the concentric inner well is filled with medium only. Coverslips carrying the cultured cells are inverted and placed onto the chamber. Cell locomotion is recorded through the annular bridge between the concentric inner and outer well. For assessing chemokinesis, the outer and inner wells are filled with equal concentrations of the chemoattractant. A period of 6 h was chosen to assess cell migration.
To determine the efficiency of forward migration during the 6 h recording period, the FMI was calculated as the ratio of forward progress to the total path length (Foxman et al., 1999; Zhang et al.).

[3] = system: VEGF-induced angiogenesis; conditions: rabbit corneal model; cited from earlier work
KDR = KDR (Homo sapiens, UniProt P35968); conditions: cited from earlier work
[4] = system: immature neurons in the presence of neural stem/progenitor cells (hES-NSC70+N30); test: Boyden chamber assay of neural stem/progenitor cells mixed with immature neurons (hES-NSC70+N30) pre-incubated with inhibitor; type: cell-based, human; conditions: hES-NSC70+N30 pre-incubated for 30 minutes with agent
Description: Bars represent the percentage of migrated neurons after 20 hours in culture towards medium or a chemoattractant either with or without VEGF R2-AB or endostatin treatment. Cell numbers were normalised to the number of plated neurons (*P≦0.02; statistical significance was determined in relation to the control).
as §1, with “If the agent acts as a chemoattractant, the attached cells will migrate through the filter towards the gradient of the attracting factor. Small pore sizes (8 μm) require active migration rather than passive falling of the cells through the filter.” left out
In this study agarose beads were soaked with either 30 ng/ml EGF, BDNF, SDF1, SCF, PDFG-AA, FGF2 or VEGF (FIG. 1B). […] Cells that had not migrated and were still on the upper side of the membrane were scraped off, while the migrated cells on the lower side were DAPI stained and counted. […]

[5] = system: lt-hESNSC mixed with immature neurons on hippocampal rat slice cultures; test: Transplantation onto rat hippocampal slice cultures (migration of human neurons from mixed grafts); type: cell-based
Description: Using a vibroslicer, 400 μm horizontal sections were generated from the hippocampus of 9-10 day-old Wistar rats. The slices included the dentate gyrus and the entorhinal and temporal cortex (Scheffler et al., 2003; Opitz et al., 2007). They were transferred onto a polyester membrane and cultivated at 35° C., 5% CO2 and saturated air humidity in an initial culture medium containing 25% normal horse serum, which was gradually replaced after 3-5 days by chemically defined, serum-free culture medium based on DMEM/F12, N2 supplement and B27 supplement. Medium was changed every other day and 5-7 days after explantation a cell suspension of 50 000 cells in a 1 μl volume was spotted onto the entorhinal cortex of the slice using an injection device.
For immunohistochemical analysis of slice cultures (FIG. 4), cultures were fixed in 4% paraformaldehyde for 4 hours and subsequently washed several times with PBS. Slices were permeabilized/blocked with 0.1% Triton X-100+10% FCS for 6 hours at 25° C. Incubation with primary antibody was for 16 hours at room temperature, followed by washing steps with PBS for 5 hours. Incubation with the secondary antibodies was for 2 hours at room temperature.
To further investigate whether endostatin can also interfere with the chemoattractive effect of neural stem/progenitor cells on immature neurons in a context closer to an in vivo situation, hippocampal rat slice culture experiments were performed. HES-NSC70+N30 were pre-incubated for 30 minutes in 30 μl Cytocon™-Buffer II with either 2 μl stock solution endostatin (n=9) or with 2 μl of the solvent of endostatin (citric-phosphate buffer) as control (n=9), and then deposited on the entorhinal cortex of hippocampal slice cultures. Cultures of pure human neurons were transplanted as positive control (n=9). The slices were further cultured for 18 days after deposition of the cells. 1 μl/ml endostatin stock solution was continuously applied every day to the slice media.
To further investigate whether BIBF1120 can also interfere with the chemoattractive effect of neural stem/progenitor cells on immature neurons, hippocampal rat slice culture experiments were performed. Lt-hESNSC mixed with purified DCX-EGFP positive neurons (30.0000 lt-hESNSC mixed with 100.000 purified neurons per μl) were pre-incubated for 30 min. in Cytocon™-Buffer II with or without 2 μg/ml BIBF1120, respectively, and then deposited on the entorhinal cortex (EC) of hippocampal slice cultures. The slices were further cultured for 7 days after deposition of the cells. 2 μg/ml BIBF1120 was continuously applied every day to the slice media.

primary tumor = conditions: cited from earlier work

KDR, sequence (P35968 20-1356): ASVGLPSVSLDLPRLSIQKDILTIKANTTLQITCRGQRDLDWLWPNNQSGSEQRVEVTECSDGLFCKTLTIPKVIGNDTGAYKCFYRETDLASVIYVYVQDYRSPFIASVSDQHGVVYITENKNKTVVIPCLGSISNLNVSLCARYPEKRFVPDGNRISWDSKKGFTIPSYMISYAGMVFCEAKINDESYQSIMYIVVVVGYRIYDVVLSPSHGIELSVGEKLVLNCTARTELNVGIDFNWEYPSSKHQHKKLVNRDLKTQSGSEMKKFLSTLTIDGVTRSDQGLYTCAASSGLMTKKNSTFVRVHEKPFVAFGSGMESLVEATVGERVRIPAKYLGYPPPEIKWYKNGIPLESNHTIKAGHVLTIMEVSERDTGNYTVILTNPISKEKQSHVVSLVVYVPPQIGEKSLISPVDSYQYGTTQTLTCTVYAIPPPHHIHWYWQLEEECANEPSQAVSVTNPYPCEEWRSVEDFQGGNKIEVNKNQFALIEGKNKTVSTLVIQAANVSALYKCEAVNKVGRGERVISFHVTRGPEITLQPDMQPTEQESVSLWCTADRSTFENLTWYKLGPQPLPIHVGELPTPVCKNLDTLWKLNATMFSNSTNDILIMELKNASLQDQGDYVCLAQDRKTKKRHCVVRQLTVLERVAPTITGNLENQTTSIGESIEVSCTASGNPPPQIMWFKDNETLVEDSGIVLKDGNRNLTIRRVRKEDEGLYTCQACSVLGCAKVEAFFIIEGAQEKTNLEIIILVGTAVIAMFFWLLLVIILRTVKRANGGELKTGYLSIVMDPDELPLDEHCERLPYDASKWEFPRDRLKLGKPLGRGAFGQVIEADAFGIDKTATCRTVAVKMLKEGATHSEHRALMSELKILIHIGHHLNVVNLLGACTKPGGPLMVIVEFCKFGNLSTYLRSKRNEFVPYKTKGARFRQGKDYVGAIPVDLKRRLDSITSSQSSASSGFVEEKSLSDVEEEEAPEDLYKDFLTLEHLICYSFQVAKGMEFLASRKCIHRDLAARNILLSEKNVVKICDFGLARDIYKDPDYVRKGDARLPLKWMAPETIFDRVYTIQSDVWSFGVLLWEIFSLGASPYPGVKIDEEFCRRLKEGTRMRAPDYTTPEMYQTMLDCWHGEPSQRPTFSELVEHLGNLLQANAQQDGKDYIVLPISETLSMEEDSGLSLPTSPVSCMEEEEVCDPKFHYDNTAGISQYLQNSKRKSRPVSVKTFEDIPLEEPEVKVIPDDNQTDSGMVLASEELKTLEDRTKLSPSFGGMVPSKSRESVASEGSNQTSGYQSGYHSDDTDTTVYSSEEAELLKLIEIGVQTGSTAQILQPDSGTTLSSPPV

In the case of “PDGF: platelet-derived growth factor, tested as neuronal chemoattractant”, the “chemoattractive effect on neurons in the chamber migration assay” value (shortened to “chemoattractive effect on neurons”) (human Neurons [1]) is reported as “neuronal chemoattractants; also recorded: significant chemoattractive effect”.

In the case of VEGF, the “chemoattractive effect on neurons” value (human Neurons [1]) is reported as “neuronal chemoattractants; also recorded: significant chemoattractive effect” and the “chemotaxis of human neurons towards gradient of the factor” value (human Neurons [2]) is reported as “neuronal chemoattractants; also recorded: clear directionality of migration”.

For ATWLPPR, the VEGF-induced angiogenesis [3] is listed as “abolished” and the “VEGF binding to cell-displayed KDR” value (KDR) is listed as “abolish”.

With endostatin the “migration of immature neurons towards PDGF gradient” value ([4]; agarose beads releasing PDGF) was “additionally enhanced the effect”, the “migration of immature neurons towards media” value ([4]; plain agarose beads, 20 hours, vs solvent control) was “significantly enhanced migration; also recorded: most prominent enhancement of migration” and the “migration of single human neurons away from the transplantation core (horizontal)” value ([5]; hES-NSC70+N30, endostatin pre-incubation and daily application, day 18) was “up to 800 μm”. The “migration horizontally over the slice compared to control population” value ([5]; hES-NSC70+N30, endostatin treated, 18 days after transplantation) was “enhanced migration and integration capacity”, the “depth reached along the z-axis” value ([5]; hES-NSC70+N30, endostatin treated, day 18) was 350 μm and the “toxicity during continued treatment” value (primary tumor; in vivo) was “no toxicity”. For the same substance, the “tumor regression in size” value (primary tumor; recombinant E. coli-derived endostatin added at a site remote from the primary tumor) was “over 150 fold” and the “tumor size after regression” value (primary tumor; recombinant E. coli-derived endostatin) was “less than 1 mm^3”.

With “SDF1: soluble factor tested as neuronal chemoattractant” the “chemoattractive effect on neurons” value (human Neurons [1]) was “neuronal chemoattractants”.

In the case of “FGF2: fibroblast growth factor 2, an 18 kDa protein”, the “chemoattractive effect on neurons” value (human Neurons [1]) is reported as “neuronal chemoattractants; also recorded: significant chemoattractive effect” and the “chemotaxis of human neurons towards gradient of the factor” value (human Neurons [2]) is reported as “neuronal chemoattractants; also recorded: clear directionality of migration”.
